Reference: patent US20120021434A1, “METHOD FOR TREATING B CELL REGULATED AUTOIMMUNE DISORDERS” (Synta Pharmaceuticals Corp., priority 2005, published 2012)

Legend:
Assay type in all cases: cell-based
NF-κB p65 = assay: Immunofluorescence of p65 nuclear accumulation in LPS-stimulated RAW264.7 cells; conditions: RAW264.7, LPS 5 μg/mL, 100 nM, 4 hours
Protocol: (§1) We next examined whether compound 50 can block the accumulation of c-Rel in the nucleus of cells induced by LPS (FIG. 2). RAW264.7 cells cultured in DMEM with 10% BCS were split and seeded into 4-well chambered slides at 80,000 cells/well density. The cells were then treated with DMSO, Compound 50 (100 nM), LPS (Sigma, 5 μg/mL), LPS (5 μg/mL)+Compound 50 (100 nM) for 4 hours and fixed with 3% paraformaldehyde solution (1×PBS) after 1× quick rinse with 1×PBS. Fixed cells were permeablized with 0.2% TX100 and immunostained with anti-cRel antibody (SC70, Santa Cruz, 1:200 dilution) or anti-NF-κB p65 antibody (SC109, Santa Cruz, 1:100 dilution), and subsequently stained with Alexa Fluor 488 Goat-anti-Rabbit secondary antibody and DAPI (Molecular Probes, 1.1 μM). Images were obtained with CoolSNAP monochrome CCD camera on a Nikon inverted microscope TE300 using identical imaging parameters and were processed identically with Photoshop CS software. As observed previously, c-Rel localized to the cytoplasm in DMSO-treated cells and to the nucleus in LPS-treated cells. […] We also examined whether Compound 50 blocks the nuclear accumulation of another NF-κB/Rel family member, p65, in LPS-stimulated RAW cells (FIG. 3). As observed for c-Rel, p65 was localized to the cytoplasm in DMSO and Compound 50-treated cells and to the nucleus in LPS-stimulated cells. […]

p50 = assay: Nuclear p50 in PMA+ionomycin stimulated Jurkat T cells (immunoblot); conditions: 100 nM
c-Rel [1] = target: T1, c-Rel (Mus musculus, UniProt P15307); assay: Immunofluorescence of c-Rel nuclear accumulation in LPS-stimulated RAW264.7 cells; conditions: 100 nM
T1 construct: nuclear extracts from RAW cells stimulated with LPS/IFNγ; endogenous in cells; host or cells: RAW264.7
Protocol: as §1

c-Rel [2] = target: T2, c-Rel (Homo sapiens, UniProt Q04864); assay: Nuclear c-Rel in PMA+ionomycin stimulated Jurkat T cells (immunoblot); conditions: 100 nM
T2 construct: a western blot assay of THP1 nuclear c-Rel, p50 and p65 proteins was carried out; endogenous in cells; host or cells: THP-1; Jurkat
T2 sequence (Q04864 1-619): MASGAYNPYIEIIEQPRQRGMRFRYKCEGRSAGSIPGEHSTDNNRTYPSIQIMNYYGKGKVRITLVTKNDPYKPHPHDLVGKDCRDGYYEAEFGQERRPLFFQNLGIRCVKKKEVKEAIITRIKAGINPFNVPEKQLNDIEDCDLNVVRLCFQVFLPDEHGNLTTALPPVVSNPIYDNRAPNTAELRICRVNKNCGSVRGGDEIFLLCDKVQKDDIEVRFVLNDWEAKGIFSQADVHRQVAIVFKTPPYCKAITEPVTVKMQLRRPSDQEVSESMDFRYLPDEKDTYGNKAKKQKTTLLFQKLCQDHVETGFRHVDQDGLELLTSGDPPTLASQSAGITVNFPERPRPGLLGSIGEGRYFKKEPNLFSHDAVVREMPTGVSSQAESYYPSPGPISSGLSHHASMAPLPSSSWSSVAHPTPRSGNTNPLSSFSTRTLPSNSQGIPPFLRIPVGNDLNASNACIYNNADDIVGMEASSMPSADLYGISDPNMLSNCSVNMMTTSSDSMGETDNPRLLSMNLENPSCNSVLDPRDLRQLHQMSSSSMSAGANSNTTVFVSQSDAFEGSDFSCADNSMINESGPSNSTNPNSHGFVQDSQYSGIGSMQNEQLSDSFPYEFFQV
Excerpt: We therefore examined the accumulation of nuclear c-Rel in these cells by immunoblot analysis.

c-Rel [3] = target: T1, c-Rel; assay: BD TransFactor assay of c-Rel DNA-binding activity in nuclear extracts of RAW 264.7 cells; conditions: LPS/IFNγ, 1000 nM, 30 min pre-treatment, 3 hrs
Protocol: In this study, we examined the effect of Compound 50 on the DNA-binding activity of nuclear c-Rel. The BD transfactor assay (a non-radioactive version of a super-shift assay) was used to measure the DNA-binding activity of c-Rel. In this assay, nuclear extracts are added to biotinylated double-stranded oligonucleotides containing the NF-κB binding site bound to a streptavidin 96-well plate. Detection of the transcription factor-DNA complex is performed with a specific primary antibody for c-Rel. The 96-well format allows for simultaneous measurement of multiple conditions and proteins using HRP-conjugated secondary antibodies whose enzymatic product can be measured using a luminometer. The level of c-Rel DNA-binding activity increased 40-fold (relative to DMSO control) in nuclear extracts from RAW cells stimulated with LPS/IFNγ.
Methods: 20×10^6 Raw 264.7 cells were treated with either DMSO, LPS/IFNγ, or LPS/IFNγ/Compound 50. (LPS conc. 1 ug/ml f.c.; mouse IFNγ mouse 100 U/ml f.c, Compound 501 uM f.c). (LPS: Sigma Cat # L2654. Mouse IFNγ; Cat # R+D 485-MICF). […]
After measurement of protein concentration using BioRad assay, the nuclear extract was used in a Chemiluminescent NF-κB TransFactor Kit (BD) according to the user manual. […] Finally, amount of bound antibody to the plate was detected by incubation with chemiluminescent substrate and subsequent detection with a luminometer. […]

IL-2 = assay: Induction of IL-2 in PMA+ionomycin stimulated Jurkat T cells; conditions: previously shown

T1 sequence (P15307 whole entry): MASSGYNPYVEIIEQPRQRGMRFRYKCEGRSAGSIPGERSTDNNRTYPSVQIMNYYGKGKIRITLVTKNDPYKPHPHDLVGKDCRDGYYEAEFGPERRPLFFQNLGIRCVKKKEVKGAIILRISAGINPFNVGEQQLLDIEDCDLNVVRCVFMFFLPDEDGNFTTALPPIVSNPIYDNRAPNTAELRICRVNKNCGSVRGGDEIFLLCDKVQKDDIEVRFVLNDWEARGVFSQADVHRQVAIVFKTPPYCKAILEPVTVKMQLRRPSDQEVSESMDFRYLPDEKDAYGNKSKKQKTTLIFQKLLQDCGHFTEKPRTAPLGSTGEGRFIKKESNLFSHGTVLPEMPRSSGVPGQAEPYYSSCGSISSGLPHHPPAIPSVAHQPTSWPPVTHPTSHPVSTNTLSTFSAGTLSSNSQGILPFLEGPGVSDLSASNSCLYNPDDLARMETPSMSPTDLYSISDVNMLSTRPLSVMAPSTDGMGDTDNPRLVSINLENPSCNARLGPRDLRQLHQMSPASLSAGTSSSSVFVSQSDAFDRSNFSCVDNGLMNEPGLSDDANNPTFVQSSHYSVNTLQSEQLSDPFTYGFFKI

- LPS-induced accumulation of c-Rel in the nucleus (c-Rel [1]; RAW264.7, LPS 5 μg/mL, 4 hours): inhibited
- nuclear/cytoplasmic distribution of c-Rel (c-Rel [1]; RAW264.7, absence of LPS, 4 h): did not alter
- levels of nuclear c-Rel (c-Rel [2]): reduced
- reduction in the level of c-Rel DNA-binding activity (c-Rel [3]): 40%
Compound: Cc1cccc(/C=N/Nc2cc(N3CCOCC3)nc(OCCc3ccccn3)n2)c1 [Compound 50, N-(3-Methyl-benzylidene)-N′-[6-morpholin-4-yl-2-(2-pyridin-2-yl-ethoxy)-pyrimidin-4-yl]-hydrazine]
- LPS-induced p65 nuclear accumulation (NF-κB p65): not blocked
- nuclear levels of p50 (p50): slightly reduced
- induction of the c-Rel dependent cytokine IL-2 (IL-2): impairs
